A word on the EC50: it is the concentration giving half of the maximal effect.

For test [1], the target named is Transient receptor potential cation channel subfamily A member 1 (Rattus norvegicus, UniProt Q6RI86). The test can be described thus: Activation of TRPA1 in rat astrocytes assessed as induction of Ca2+ influx by calcium green-1/acetoxymethyl ester-based fluorescence assay. The format is cell-based.
In test [2] the test system is SH-SY5Y. The test can be described thus: Increase in H2S level in human SH-SY5Y cells at 20 uM after 3 hrs by HSip-1 probe-based fluorescence assay. The class given is functional, cell-based.

Structures are written as SMILES. Activity calls are given as the source filed them. The calls are words filed in the database; no cut-off is given here.

Chain of Transient receptor potential cation channel subfamily A member 1 (Q6RI86 whole entry): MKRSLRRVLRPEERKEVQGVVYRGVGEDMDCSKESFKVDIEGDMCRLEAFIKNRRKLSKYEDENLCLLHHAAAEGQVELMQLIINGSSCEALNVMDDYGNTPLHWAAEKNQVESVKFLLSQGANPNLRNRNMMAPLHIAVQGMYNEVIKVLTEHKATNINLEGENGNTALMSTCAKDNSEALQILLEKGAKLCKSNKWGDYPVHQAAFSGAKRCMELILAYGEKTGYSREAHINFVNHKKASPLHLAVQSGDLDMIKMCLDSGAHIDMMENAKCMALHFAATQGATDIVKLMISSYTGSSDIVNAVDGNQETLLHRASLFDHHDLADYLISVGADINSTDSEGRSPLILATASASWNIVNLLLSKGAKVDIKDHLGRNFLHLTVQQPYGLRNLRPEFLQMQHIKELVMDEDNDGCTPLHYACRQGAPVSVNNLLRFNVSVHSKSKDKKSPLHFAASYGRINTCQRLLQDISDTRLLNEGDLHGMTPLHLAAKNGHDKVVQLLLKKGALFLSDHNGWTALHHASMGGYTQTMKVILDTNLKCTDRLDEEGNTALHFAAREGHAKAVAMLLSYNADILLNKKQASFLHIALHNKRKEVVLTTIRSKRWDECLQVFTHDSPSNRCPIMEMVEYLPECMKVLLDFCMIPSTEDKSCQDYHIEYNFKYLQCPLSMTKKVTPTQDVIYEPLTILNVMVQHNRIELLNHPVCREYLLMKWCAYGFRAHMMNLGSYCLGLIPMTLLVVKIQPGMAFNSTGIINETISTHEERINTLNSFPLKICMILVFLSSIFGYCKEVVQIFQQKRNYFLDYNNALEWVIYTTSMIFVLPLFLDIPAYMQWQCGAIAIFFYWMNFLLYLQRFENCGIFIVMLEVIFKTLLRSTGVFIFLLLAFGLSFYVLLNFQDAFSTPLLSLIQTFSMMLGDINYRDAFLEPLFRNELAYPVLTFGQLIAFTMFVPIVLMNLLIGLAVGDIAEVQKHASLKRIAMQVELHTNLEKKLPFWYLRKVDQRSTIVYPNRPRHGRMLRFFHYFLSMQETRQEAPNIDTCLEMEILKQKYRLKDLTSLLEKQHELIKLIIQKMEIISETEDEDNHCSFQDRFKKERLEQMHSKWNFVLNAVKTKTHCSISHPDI

For `S1SSSSSSS1` [SULFUR], the EC50 in test [1] is 116 µM.

Regarding `O=C(NC12CC3CC(CC(C3)C1)C2)c1ccc(-c2cssc2=S)cc1`, in test [2], the outcome was Active.

For the molecule `CC12CC3CC(C)(C1)CC(NC(=O)c1ccc(-c4cssc4=S)cc1)(C3)C2`, in test [2], the result was Active.

For `SSS`, in test [1], the EC50 was determined as 0.091 µM.

For the origin of these results see ChEMBL document CHEMBL3596183, “Cytoprotective effects of hydrogen sulfide-releasing N-methyl-D-aspartate receptor antagonists are mediated by intracellular sulfane sulfur” (Medchemcomm, 2014).
